This passage reports minimal effective dose and EC50 results from US4585861A, “1,2,4-triazine derivatives” (Eli Lilly and Company, priority 1985, dated 1986).

Structures can show the parent of a compound that is named as a salt.

Test [1] can be described thus: Mouse Writhing Inhibition Assay. Type of test: in vivo, Cox standard strain albino male mice. As for the experimental part:
Writhing, which is characterized by contraction of the abdominal musculature, extension of the hindlegs, and rotation of the trunk, was induced in Cox standard strain albino male mice. The mice, weighing 18-24 grams, were fasted overnight and given the test compound by gavage in an acacia suspension (5%) 60 minutes before writhing was induced by the intraperitoneal administration of 55 mg./kg. of acetic acid (0.55 percent). Each treatment group consisted of 3 mice. The total number of writhes for the treatment group was determined during a 5-minute observation starting 5 minutes after acetic acid administration.
Background: Writhing tests count abdominal constrictions after an irritant is injected.

Test [2] is described as follows: Appetite Suppression Assay. It counts as in vivo, Cox standard strain albino male mice. The following applies: Mus musculus. The method, then: In this test, groups of three Cox standard strain albino male mice were weighed (18-24 grams) and then fasted overnight (16-18 hours). The mice were reweighed and then given the test compound in a suspension of acacia (5%) by gavage. Thirty minutes after oral administration, the mice were allowed to eat freely for one hour. After the eating period, the mice were weighed once more. The percent of weight gained (from the time the mice were given the test compound to after the feeding period) compared to weight lost during the fast period was calculated. The non-drug treated control animals gained back 35-55% of the weight lost on fasting. Any compound at the dose level tested which produced a weight gain of less than 10% was considered to be active. The results in Table 2 report the lowest dose level in which there was activity for each compound tested. Dextroamphetamine sulfate is active in this system at about 2.5 mg./kg.

The nature of test [3]: Metrazole Induced Convulsion Inhibition Assay. The following applies: Mus musculus. Type of test: in vivo, Cox standard strain albino male mice. The method, then:
(§1) In this assay, a compound to be tested was suspended in acacia (5%) and administered by gavage to each of three Cox standard strain albino male mice (18-24 grams) at the dose level being investigated. One hour after the oral administration, a water solution of metrazole (pentylenetetrazole) was administered by the intraperitoneal route to each mouse at a dose of 110 mg./kg. […] A score of 0 was assigned to a mouse not showing any signs of convulsant activity; a score of 1 was given to mice developing clonic convulsions; a score of 2 was given to mice showing flexor tonic convulsions; a score of 3 was given to mice showing extensor tonic convulsions; and a score of 4 was given to mice that died within the one hour. The scores of the three mice were totalled for each compound and dose level. The scores can range from 0 to 12; a score of 6 or less was interpreted as indicative of an active compound at that dose level. Values reported in Table 2 below are the minimum oral dose levels (mg./kg.) where activity as defined above was observed.

Test [4] is described as follows: Electroshock Induced Convulsion Inhibition Assay. The following applies: Mus musculus. It counts as in vivo, Cox standard strain albino male mice. The method, then:
as §1
The drug administration and test conditions used in this assay were similar to those used in the metrazole induced convulsion inhibition assay above except that a 0.1 second, 50 milliampere electroshock through corneal electrodes induced the convulsion instead of metrazole. The animals were examined and evaluated immediately after the electroshock and were scored as before. The results in Table 2 are expressed as the lowest dose of each compound tested which was active as previously defined. For comparison, 18 milliamperes was usually sufficient to produce extensor tonic convulsions in about half of the control animals; at 50 milliamperes, almost all control animals died. Diazepam was active at about 1 mg./kg.

The target in test [5] is GABA receptor. Put plainly: In vitro activation of GABA binding ([3H]GABA, Triton X-100 treated membrane protein). The following applies: average of one or more tests, read-out: SC50 GABA (nanomolar concentration producing a 50% increase in binding). As for the experimental part: (§2) The novel compounds of this invention were examined for their in vitro ability to activate GABA and benzodiazepine (BZ) binding. To measure the effect of a compound on GABA binding, Triton X-100 (octylphenoxy polyethoxyethanol, Rohm and Haas Co.) treated membrane protein was incubated in the presence of the compound and [^3 H]GABA as detailed by Horng and Wong, J. Neurochemistry, 32 (5), 1379 (1979). To examine BZ binding, H-flunirazepam and the compounds were incubated with native membrane protein as reported by Wong, et al, Brain Res. Bull., 5 (Suppl. 2), 853 (1980). The results in Table 1 are the nanomolar concentrations of compounds (by Example No.) which produced a 50 percent increase (SC50) in GABA or BZ binding. Each result is the average of one or more tests.

The target of test [6] is benzodiazepine receptor. Put plainly: In vitro activation of benzodiazepine (BZ) binding (flunirazepam, native membrane protein). The settings on record: average of one or more tests, read-out: SC50 BZ (nanomolar concentration producing a 50% increase in binding). As for the experimental part:
as §2

Where [7] appears, read: oral gavage, 1 h before metrazole 110 mg./kg. i.p., active = total score of 6 or less (3 mice, range 0-12), read-out: Minimum active oral dose, Metrazole.
Where [8] appears, read: oral, 0.1 second, 50 milliampere corneal electroshock, active = total score of 6 or less, read-out: Minimum active oral dose, Electro-Shock.
Setting [9] is: oral gavage 30 min before feeding, active = weight gain of less than 10% of weight lost on fasting, read-out: Minimum active oral dose, Appetite Suppression.
Setting [10] is: oral gavage 60 min before acetic acid 55 mg./kg. i.p., active = less than ten writhes, read-out: Minimum active oral dose, Mouse Writhing.

Regarding `CC(=O)Oc1ccccc1C(=O)O` [Aspirin, acetyl salicylic acid, reference compound], the minimal effective dose in test [1] (po, read-out: dose showing activity, mouse writhing (reference)) turned out to be 200 mg/kg.

For the compound `C[C@H](N)Cc1ccccc1` [Dextroamphetamine sulfate, reference compound], in test [2] (po, read-out: dose showing activity, appetite suppression (reference)), the minimal effective dose is around 2.5 mg/kg.

Turning to `CN1C(=O)CN=C(c2ccccc2)c2cc(Cl)ccc21` [Diazepam, reference compound], the minimal effective dose in test [3] (po, read-out: dose showing activity, metrazole test (reference)) was around 1 mg/kg; in test [4] (po, read-out: dose showing activity, electroshock test (reference)), around 1 mg/kg.

Regarding `Cc1ccc(-c2nnc(N3CCC(O)CC3)nc2-c2ccc(C)cc2)cc1` [Example 7, 1-[5,6-bis(4-methylphenyl)-1,2,4-triazin-3-yl]-4-piperidinol], the EC50 worked out at 900 nM in test [5] and 700 nM in test [6]. Besides, the minimal effective dose was 3.1 mg/kg in test [3] (setting [7]), below 25 mg/kg in test [4] (setting [8]), 3.1 mg/kg in test [2] (setting [9]) and 3.1 mg/kg in test [1] (setting [10]).

Consider `CCc1ccc(-c2nnc(N3CCC(O)CC3)nc2-c2ccc(CC)cc2)cc1` [Example 8, 1-[5,6-bis(4-ethylphenyl)-1,2,4-triazin-3-yl]-4-piperidinol], for which the EC50 is above 10000 nM in test [5] and 3500 nM in test [6].

Consider `Cc1ccccc1-c1nnc(N2CCC(O)CC2)nc1-c1ccccc1C` [Example 9, 1-[5,6-bis(2-methylphenyl)-1,2,4-triazin-3-yl]-4-piperidinol], for which the EC50 in test [5] and in test [6] was above 10000 nM in each case.

`Cc1cccc(-c2nnc(N3CCC(O)CC3)nc2-c2cccc(C)c2)c1` [Example 10, 1-[5,6-bis(3-methylphenyl)-1,2,4-triazin-3-yl]-4-piperidinol]: in test [6], the EC50 is above 10000 nM.

As for `OC1CCN(c2nnc(-c3ccc(Cl)cc3)c(-c3ccc(Cl)cc3)n2)CC1` [Example 11, 1-[5,6-bis(4-chlorophenyl)-1,2,4-triazin-3-yl]-4-piperidinol], the minimal effective dose in test [3] (setting [7]) is 12.5 mg/kg; in test [4] (setting [8]) it was above 25 mg/kg; in test [2] (setting [9]), 25 mg/kg; in test [1] (setting [10]), above 25 mg/kg.

As to `CC(=O)OC1CCN(c2nnc(-c3ccc(C)cc3)c(-c3ccc(C)cc3)n2)CC1` [Example 12, 1-[5,6-bis(4-methylphenyl)-1,2,4-triazin-3-yl]-4-piperidinol, acetate (ester)], the EC50 in test [5] was 3.3 nM; in test [6] it was 5.5 nM. For the same compound, the minimal effective dose in test [3] (setting [7]) turned out to be 6.25 mg/kg; in test [4] (setting [8]), 25 mg/kg; in test [2] (setting [9]), 12.5 mg/kg; in test [1] (setting [10]), 12.5 mg/kg.

`CC(=O)OC1CCN(c2nnc(-c3ccc(Cl)cc3)c(-c3ccc(Cl)cc3)n2)CC1` [Example 13, 1-[5,6-bis[4-chlorophenyl]-1,2,4-triazin-3-yl]-4-piperidinol, acetate (ester)]: the EC50 in test [5] is 15 nM; in test [6] it was 12 nM. Further, the minimal effective dose in test [3] (setting [7]) is 50 mg/kg; in test [4] (setting [8]) it was above 50 mg/kg; in test [2] (setting [9]), above 50 mg/kg; in test [1] (setting [10]) it was above 50 mg/kg.

`Cc1ccc(-c2nnc(N3CCC(OC(=O)C(C)(C)C)CC3)nc2-c2ccc(C)cc2)cc1` [Example 16, 1-[5,6-bis(4-methylphenyl)-1,2,4-triazin-3-yl]-4-piperidinol, pivaloate (ester)]: the EC50 in test [5] worked out at 110 nM; in test [6], 14 nM.

Regarding `Cc1ccc(-c2nnc(N3CCC(O)C3)nc2-c2ccc(C)cc2)cc1` (centres unmarked) [Example 18, 1-[5,6-bis(4-methylphenyl)-1,2,4-triazin-3-yl]-3-pyrrolidinol], the minimal effective dose in test [3] (setting [7]) was above 200 mg/kg; in test [4] (setting [8]), 200 mg/kg; in test [2] (setting [9]) it was 12.5 mg/kg; in test [1] (setting [10]) it was 200 mg/kg.

With `CC(=O)OC1CCN(c2nnc(-c3ccc(C)cc3)c(-c3ccc(C)cc3)n2)C1` (centres unmarked) [Example 19, 1-[5,6-bis(4-methylphenyl)-1,2,4-triazin-3-yl]-3-pyrrolidinol, acetate (ester)], the EC50 in test [5] was 43 nM; in test [6], 60 nM.

As for `Cc1ccc(-c2nnc(N3CCOCC3)nc2-c2ccc(C)cc2)cc1` [Example 22, 3-morpholino-5,6-bis(4-methylphenyl)-1,2,4-triazine], the EC50 in test [5] was 875 nM; in test [6], 1140 nM.

For the compound `Cc1ccc(-c2nnc(N3CCC(C)CC3)nc2-c2ccc(C)cc2)cc1` [Example 25, 5,6-bis(4-methylphenyl)-3-(4-methyl-1-piperidinyl)-1,2,4-triazine], the minimal effective dose in test [3] (setting [7]) is above 200 mg/kg; in test [4] (setting [8]), above 200 mg/kg; in test [2] (setting [9]), 50 mg/kg; in test [1] (setting [10]), above 200 mg/kg.

In the case of `CCOC1CCN(c2nnc(-c3ccc(C)cc3)c(-c3ccc(C)cc3)n2)CC1` [Example 27, 3-(4-ethoxy-1-piperidinyl)-5,6-bis(4-methylphenyl)-1,2,4-triazine], the values for the EC50 in test [5] and in test [6] were 10 nM and 21 nM, respectively.

Turning to `CNC(=O)OC1CCN(c2nnc(-c3ccc(C)cc3)c(-c3ccc(C)cc3)n2)CC1` [Example 30, 1-[5,6-bis(4-methylphenyl)-1,2,4-triazin-3-yl]-4-piperidinol, N-methyl carbamate (ester)], the EC50 in test [5] stood at 100 nM; in test [6] it was 24 nM.

For `Cc1ccc(-c2nnc(N3CCC(OC(=O)N(C)C)CC3)nc2-c2ccc(C)cc2)cc1` [Example 31], the results for the EC50 in test [5] and in test [6] were 1 nM and 3 nM, respectively.

Turning to `Cc1ccc(-c2nnc(N3CCC(OC=O)CC3)nc2-c2ccc(C)cc2)cc1` [Example 34, 1-[5,6-bis(4-methylphenyl)-1,2,4-triazin-3-yl]-4-piperidinol, formate (ester)], the results for the EC50 in test [5] and in test [6] were 13 nM and 10 nM, respectively.

`Cc1ccc(-c2nnc(N3CCC(C(N)=O)CC3)nc2-c2ccc(C)cc2)cc1` [Example 36, 1-[5,6-bis(4-methylphenyl)-1,2,4-triazin-3-yl]-4-piperidinecarboxamide]: the EC50 in test [5] was found to be 800 nM; in test [6], 8500 nM.

`Cc1ccc(-c2nnc(N3CCC(CO)CC3)nc2-c2ccc(C)cc2)cc1` [Example 37, 1-[5,6-bis(4-methylphenyl)-1,2,4-triazin-3-yl]-4-piperidinemethanol]: the EC50 came to 160 nM in test [5] and 520 nM in test [6].

With `Cc1ccc(-c2nnc(N3CCC(=NO)CC3)nc2-c2ccc(C)cc2)cc1` [Example 40, 1-[5,6-bis(4-methylphenyl)-1,2,4-triazin-3-yl]-4-piperidinone, oxime], the EC50 was found to be 1300 nM in test [5] and 1600 nM in test [6].
